{
  "source": "paper PMC2748101",
  "about": "“Transcriptome analysis of the responses of Staphylococcus aureus to antimicrobial peptides and characterization of the roles of vraDE and vraSR in antimicrobial resistance” (BMC Genomics, 2009)",
  "key": {"S. aureus Newman": {"system": "S. aureus Newman", "format": "cell-based, Staphylococcus aureus"}, "ΔvraSR/S. aureus Newman": {"system": "ΔvraSR/S. aureus Newman", "details": "MIC; 100%, 50% (LL-37, nisin, Pep5) or 25% (hBD3) Mueller-Hinton broth"}},
  "note": "Several values for one entry are separate records, joined by “and”; a condition that tells them apart may be missing. Equal values may be shown once. Where no end group is shown, it is not given here.",
  "data": [
    {"substance": "ALWKTLLKKVLKAAAK-NH2 [Dermaseptin K4-S4(1-16)-NH2]", "values": [
      {"measurement": "Number of genes with decreased expression", "setting": "S. aureus Newman", "result": 134, "unit": "genes"},
      {"measurement": "Fold induction SA0336", "setting": "S. aureus Newman; n=3", "result": "2.2, 2.1, 2.1 fold"},
      {"measurement": "Fold induction SA0342", "setting": "S. aureus Newman; n=3", "result": "2.2, 2.2 fold"},
      {"measurement": "Fold induction SA0358", "setting": "S. aureus Newman; n=3", "result": "2.4, 2.4 fold"},
      {"measurement": "Fold induction SA0428", "setting": "S. aureus Newman; n=3", "result": "2.3 fold and 3.6, 2.4, 2.3 fold"},
      {"measurement": "Fold induction SA0526", "setting": "S. aureus Newman; n=3", "result": "2.2, 2.0 fold"},
      {"measurement": "Fold induction SA0591", "setting": "S. aureus Newman; n=3", "result": "2.1 fold and 3.0, 3.3, 2.1 fold"},
      {"measurement": "Fold induction SA0825 (spsA)", "setting": "S. aureus Newman; n=3", "result": "2.0 fold and 2.6, 3.5, 2.0 fold"},
      {"measurement": "Fold induction SA0826 (spsB)", "setting": "S. aureus Newman; n=3", "result": "2.1, 2.7, 2.0 fold"},
      {"measurement": "Fold induction SA0903", "setting": "S. aureus Newman; n=3", "result": "2.6 fold and 2.1, 4.1, 2.6 fold"},
      {"measurement": "Fold induction SA0914", "setting": "S. aureus Newman; n=3", "result": "2.3, 2.5, 2.0 fold"},
      {"measurement": "Fold induction SA0962", "setting": "S. aureus Newman; n=3", "result": "2.4, 2.8, 2.4 fold"},
      {"measurement": "Fold induction SA1184 (citB)", "setting": "S. aureus Newman; n=3", "result": "2.5, 2.4, 2.0 fold"},
      {"measurement": "Fold induction SA1217", "setting": "S. aureus Newman; n=3", "result": "3.0, 2.4 fold"},
      {"measurement": "Fold induction SA1218 (pstB)", "setting": "S. aureus Newman; n=3", "result": 2.9, "unit": "fold"},
      {"measurement": "Fold induction SA1219", "setting": "S. aureus Newman; n=3", "result": "4.2 fold and 5.4, 4.2 fold"},
      {"measurement": "Fold induction SA1220", "setting": "S. aureus Newman; n=3", "result": "2.3, 2.1 fold"},
      {"measurement": "Fold induction SA1221", "setting": "S. aureus Newman; n=3", "result": "3.1, 2.8 fold"},
      {"measurement": "Fold induction SA1235", "setting": "S. aureus Newman; n=3", "result": "2.4, 2.1, 2.6 fold"},
      {"measurement": "Fold induction SA1476", "setting": "S. aureus Newman; n=3", "result": "3.3 fold and 4.2, 5.3, 3.3 fold"},
      {"measurement": "Fold induction SA1477", "setting": "S. aureus Newman; n=3", "result": "5.5, 6.8, 3.8 fold"},
      {"measurement": "Fold induction SA1517 (citC)", "setting": "S. aureus Newman; n=3", "result": "3.1 fold and 4.9, 5.8, 3.1 fold"},
      {"measurement": "Fold induction SA1518 (citZ)", "setting": "S. aureus Newman; n=3", "result": "6.0, 6.7, 3.6 fold"},
      {"measurement": "Fold induction SA1549 (htrA)", "setting": "S. aureus Newman; n=3", "result": "2.0 fold and 2.9, 3.0, 2.0 fold"},
      {"measurement": "Fold induction SA1659 (prsA)", "setting": "S. aureus Newman; n=3", "result": "2.9 fold and 3.2, 4.5, 2.9 fold"},
      {"measurement": "Fold induction SA1700 (vraR)", "setting": "S. aureus Newman; n=3", "result": "3.2, 5.0, 2.8 fold"},
      {"measurement": "Fold induction SA1701 (vraS)", "setting": "S. aureus Newman; n=3", "result": "2.5 fold and 3.9, 5.3, 2.5 fold"},
      {"measurement": "Fold induction SA1702", "setting": "S. aureus Newman; n=3", "result": "4.3, 5.7, 2.6 fold"},
      {"measurement": "Fold induction SA1703", "setting": "S. aureus Newman; n=3", "result": "3.7, 4.2, 2.1 fold"},
      {"measurement": "Fold induction SA1706", "setting": "S. aureus Newman; n=3", "result": "2.0, 2.0, 2.1 fold"},
      {"measurement": "Fold induction SA1710", "setting": "S. aureus Newman; n=3", "result": "2.2, 2.4, 2.1 fold"},
      {"measurement": "Fold induction SA1820", "setting": "S. aureus Newman; n=3", "result": "2.2 fold and 3.6, 3.0, 2.2 fold"},
      {"measurement": "Fold induction SA1836 (groEL)", "setting": "S. aureus Newman; n=3", "result": "2.2 fold and 3.8, 4.3, 2.2 fold"},
      {"measurement": "Fold induction SA1837 (groES)", "setting": "S. aureus Newman; n=3", "result": "3.2, 3.6, 2.4 fold"},
      {"measurement": "Fold induction SA1858 (ilvD)", "setting": "S. aureus Newman; n=3", "result": "4.9, 2.5, 2.1 fold"},
      {"measurement": "Fold induction SA1860", "setting": "S. aureus Newman; n=3", "result": "15.7, 4.3, 2.1 fold"},
      {"measurement": "Fold induction SA1863 (leuB)", "setting": "S. aureus Newman; n=3", "result": "9.7, 4.2, 2.2 fold"},
      {"measurement": "Fold induction SA1971", "setting": "S. aureus Newman; n=3", "result": "2.2, 2.5, 2.2 fold"},
      {"measurement": "Fold induction SA1990", "setting": "S. aureus Newman; n=3", "result": "2.2 fold and 3.4, 2.6, 2.2 fold"},
      {"measurement": "Fold induction SA2113", "setting": "S. aureus Newman; n=3", "result": "2.2 fold and 2.2, 3.7, 2.2 fold"},
      {"measurement": "Fold induction SA2301", "setting": "S. aureus Newman; n=3", "result": "2.3, 2.2, 2.1 fold"},
      {"measurement": "Fold induction SA2343", "setting": "S. aureus Newman; n=3", "result": "2.7 fold and 4.3, 4.3, 2.7 fold"},
      {"measurement": "Fold induction SA2481", "setting": "S. aureus Newman; n=3", "result": "2.1, 3.1, 2.7 fold"},
      {"measurement": "Fold induction SA2493 (vraE)", "setting": "S. aureus Newman; n=3", "result": "3.4, 11.8, 6.2 fold"},
      {"measurement": "Fold induction SAS016", "setting": "S. aureus Newman; n=3", "result": "5.4 fold and 5.0, 7.4, 5.4 fold"}
    ]},
    {"substance": "LL-37: human cathelicidin (LLGDFFRKSKEKIGKEFKRIVQRIKDFLRNLVPRTES; Antibacterial peptide LL-37; UniProt P49913 134-170, looked up)", "values": [
      {"measurement": "Effect of the ΔvraSR mutation on sensitivity", "setting": "ΔvraSR/S. aureus Newman", "result": "did not affect the sensitivity"}
    ]},
    {"substance": "hBD3 (GIINTLQKYYCRVRGGRCAVLSCLPKEEQIGKCSTRGRKCCRRKK; UniProt P81534 23-67, looked up)", "values": [
      {"measurement": "Effect of the ΔvraSR mutation on sensitivity", "setting": "ΔvraSR/S. aureus Newman", "result": "did not affect the sensitivity"}
    ]}
  ]
}
